# Measurements as given in PubChem BioAssay AID1919000 (Molecular Pharmacology Branch, DTP, NCI, 2023).
# Several values for one entry are separate records, joined by “and”; a condition that tells them apart may be missing. Equal entries are not always repeated.
# Tested on: 653999-131-R-J2-PDC complex spheroids, growth % test/control
# Experiment: Anticancer human tumor 653999-131-R-J2-PDC patient-derived lung adenocarcinoma cell line growth inhibition [AhR]
# Settings: for viability, T/C: stronger effect = lower value
# Method in brief: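 Spheroids combined tumor cells with HUVEC endothelial cells and human MSCs as stroma. AhR antagonists were paired with standard or investigational drugs, each dosed in half-log steps down from near clinical Cmax, or from 10 microM where Cmax was unknown.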
# [1] = curve of first compound, second compound 0.1 µM
# [2] = curve of first compound, second compound 0.316 µM
# [3] = curve of first compound, second compound 1 µM
# [4] = curve of first compound, second compound 3.16 µM
# [5] = curve of first compound, second compound 10 µM
# [6] = second compound 0.1 µM, first compound 0.0316 µM
# [7] = second compound 0.1 µM, first compound 0.1 µM
# [8] = second compound 0.1 µM, first compound 0.316 µM
# [9] = second compound 0.1 µM, first compound 1 µM
# [10] = second compound 0.316 µM, first compound 0.0316 µM
# [11] = second compound 0.316 µM, first compound 0.1 µM
# [12] = second compound 0.316 µM, first compound 0.316 µM
# [13] = second compound 0.316 µM, first compound 1 µM
# [14] = second compound 1 µM, first compound 0.0316 µM
# [15] = second compound 1 µM, first compound 0.1 µM
# [16] = second compound 1 µM, first compound 0.316 µM
# [17] = second compound 1 µM, first compound 1 µM
# [18] = second compound 3.16 µM, first compound 0.0316 µM
# [19] = second compound 3.16 µM, first compound 0.1 µM
# [20] = second compound 3.16 µM, first compound 0.316 µM
# [21] = second compound 3.16 µM, first compound 1 µM
# [22] = second compound 10 µM, first compound 0.0316 µM
# [23] = second compound 10 µM, first compound 0.1 µM
# [24] = second compound 10 µM, first compound 0.316 µM
# [25] = second compound 10 µM, first compound 1 µM
# 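Also: spheroids exposed to agents for seven days.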
# 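For viability, T/C in this document: 100% = DMSO vehicle control viability.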
compound,measurement,setting,value
Nc1ccccc1NC(=O)c1ccc(CNC(=O)OCc2cccnc2)cc1 + CC(CO)NC(=O)c1cc(-c2ccc(Cl)cc2)nn(-c2cnn(C)c2)c1=O,IC50,[1],3830 nM
same,IC50,[2],3530 nM
same,IC50,[3],2780 nM
same,IC50,[4],3490 nM
same,IC50,[5],2660 nM
same,"viability, T/C",[6],86.6%
same,"viability, T/C",[7],93%
same,"viability, T/C",[8],78.1%
same,"viability, T/C",[9],65.4%
same,"viability, T/C","second compound 0.1 µM, first compound 3.16 µM",65.2%
same,"viability, T/C","second compound 0.1 µM, first compound 10 µM",13%
same,"viability, T/C",[10],87.5%
same,"viability, T/C",[11],85.2%
same,"viability, T/C",[12],83.7%
same,"viability, T/C",[13],68.7%
same,"viability, T/C","second compound 0.316 µM, first compound 3.16 µM",55.5%
same,"viability, T/C","second compound 0.316 µM, first compound 10 µM",15.6%
same,"viability, T/C",[14],88%
same,"viability, T/C",[15],94.3%
same,"viability, T/C",[16],76.1%
same,"viability, T/C",[17],65.5%
same,"viability, T/C","second compound 1 µM, first compound 3.16 µM",50.7%
same,"viability, T/C","second compound 1 µM, first compound 10 µM",14.2%
same,"viability, T/C",[18],93.3%
same,"viability, T/C",[19],95.6%
same,"viability, T/C",[20],84.5%
same,"viability, T/C",[21],70%
same,"viability, T/C","second compound 3.16 µM, first compound 3.16 µM",57.5%
same,"viability, T/C","second compound 3.16 µM, first compound 10 µM",12.9%
same,"viability, T/C",[22],91%
same,"viability, T/C",[23],101%
same,"viability, T/C",[24],76.2%
same,"viability, T/C",[25],67.2%
same,"viability, T/C","second compound 10 µM, first compound 3.16 µM",50.3%
same,"viability, T/C","second compound 10 µM, first compound 10 µM",6.65%
O=C(C=Cc1cccc(S(=O)(=O)Nc2ccccc2)c1)NO,"viability, T/C",compound 0.0316 µM,91.5% and 94.1% and 91.6%
same,"viability, T/C",compound 0.1 µM,92.4% and 95.9% and 101%
same,"viability, T/C",compound 0.316 µM,82.2% and 91.9% and 96.7%
same,"viability, T/C",compound 1 µM,77% and 86.9% and 80.2%
same,"viability, T/C",compound 3.16 µM,52.3% and 62.5% and 55.9%
same,"viability, T/C",compound 10 µM,14.8% and 11.4% and 7.09%
same,IC50,curve of compound,3450 nM and 4200 nM and 3560 nM
COc1ccc([C@@H](O)c2cc(-c3ncnc4cc(N5CCOCC5)ccc34)c(F)cc2Cl)nn1,"viability, T/C",compound 0.0316 µM,112% and 97% and 106%
same,"viability, T/C",compound 0.1 µM,105% and 114% and 103%
same,"viability, T/C",compound 0.316 µM,100% and 91.4% and 81.3%
same,"viability, T/C",compound 1 µM,90.5% and 90.1% and 83.8%
same,"viability, T/C",compound 3.16 µM,66.2% and 61.9% and 69.9%
same,"viability, T/C",compound 10 µM,44.8% and 45.4% and 42.3%
same,IC50,curve of compound,7570 nM and 7280 nM and 7560 nM
CC1COCCN1c1cc(-c2ccnn2C)c2ccnc(-c3ccn[nH]3)c2n1 (stereo not drawn) + Cc1cncc(-c2nc(NCCc3c[nH]c4ccccc34)c3ncn(C(C)C)c3n2)c1,IC50,[1],123 nM
same,IC50,[2],129 nM
same,IC50,[3],170 nM
same,IC50,[4],149 nM
same,IC50,[5],< 3.16 nM
same,"viability, T/C","second compound 0.1 µM, first compound 0.00316 µM",100%
same,"viability, T/C","second compound 0.1 µM, first compound 0.01 µM",94.6%
same,"viability, T/C",[6],76.3%
same,"viability, T/C",[7],52.3%
same,"viability, T/C",[8],36.7%
same,"viability, T/C",[9],25.2%
same,"viability, T/C","second compound 0.316 µM, first compound 0.00316 µM",92.8%
same,"viability, T/C","second compound 0.316 µM, first compound 0.01 µM",92.4%
same,"viability, T/C",[10],84.8%
same,"viability, T/C",[11],53.5%
same,"viability, T/C",[12],35.5%
same,"viability, T/C",[13],26.4%
same,"viability, T/C","second compound 1 µM, first compound 0.00316 µM",107%
same,"viability, T/C","second compound 1 µM, first compound 0.01 µM",96.3%
same,"viability, T/C",[14],89.5%
same,"viability, T/C",[15],65.6%
same,"viability, T/C",[16],31.6%
same,"viability, T/C",[17],23.5%
same,"viability, T/C","second compound 3.16 µM, first compound 0.00316 µM",98.2%
same,"viability, T/C","second compound 3.16 µM, first compound 0.01 µM",98.1%
same,"viability, T/C",[18],89.6%
same,"viability, T/C",[19],56.2%
same,"viability, T/C",[20],38.5%
same,"viability, T/C",[21],29.1%
same,"viability, T/C","second compound 10 µM, first compound 0.00316 µM",36.8%
same,"viability, T/C","second compound 10 µM, first compound 0.01 µM",46.9%
same,"viability, T/C",[22],38%
same,"viability, T/C",[23],34.6%
same,"viability, T/C",[24],25.7%
same,"viability, T/C",[25],27%
COc1cc(C2c3cc4c(cc3C(OC3OC5COC(C)OC5C(O)C3O)C3COC(=O)C23)OCO4)cc(OC)c1O (stereo not drawn),"viability, T/C",compound 0.0316 µM,99.2% and 89.8% and 87.8%
same,"viability, T/C",compound 0.1 µM,79.3% and 77.8% and 77.9%
same,"viability, T/C",compound 0.316 µM,61.9% and 67.7% and 69.8%
same,"viability, T/C",compound 1 µM,49.1% and 55.2% and 50.4%
same,"viability, T/C",compound 3.16 µM,39.3% and 43.3% and 43.5%
same,"viability, T/C",compound 10 µM,29.4% and 25.6% and 27.5%
same,IC50,curve of compound,924 nM and 1560 nM and 1450 nM
CC1COCCN1c1cc(-c2ccnn2C)c2ccnc(-c3ccn[nH]3)c2n1 (stereo not drawn),"viability, T/C",compound 0.00316 µM,97.3% and 102% and 106%
same,"viability, T/C",compound 0.01 µM,92.7% and 98.5% and 104%
same,"viability, T/C",compound 0.0316 µM,77.3% and 77.9% and 90.3%
same,"viability, T/C",compound 0.1 µM,58.7% and 58.6% and 62.5%
same,"viability, T/C",compound 0.316 µM,32.9% and 34% and 41.3%
same,"viability, T/C",compound 1 µM,24% and 30.5% and 29.1%
same,IC50,curve of compound,141 nM and 142 nM and 194 nM
